Results from patent US8557796B2, “Substituted 1-oxa-2,8-diaza-spiro [4,5] dec-2-ene derivatives and related treatment methods” (Gruenenthal GmbH, priority 2001, dated 2013).

The compounds below were run on batrachotoxin (BTX) binding site (binding site 2) of the sodium channel (assay: Bond test on the sodium channel, binding site 2 (BTX bond), [3H]-batrachotoxinin A20 α-benzoate displacement). Settings: rat cerebrocortex synaptosomes.

SMILES	BTX bond, 10 μM, % inhibition [%]
CCOC(=O)C1CCCCN1C(=O)C1=NOC2(CCN(S(=O)(=O)c3ccc(Cl)s3)CC2)C1 (stereo not shown) [Example 155, 1-[8-(5-chloro-thiophene-2-sulphonyl)-1-oxa-2,8-diaza-spiro[4,5]dec-2-ene-3-carbonyl]-piperidine-2-carboxylic acid ethyl ester]	48
Cc1ccc(F)cc1S(=O)(=O)N1CCC2(CC1)CC(C(=O)NCc1cccs1)=NO2 [Example 150, 8-(5-fluoro-2-methyl-benzenesulphonyl)-1-oxa-2,8-diaza-spiro[4,5]dec-2-ene-3-carboxylic acid (thiophen-2-ylmethyl)-amide]	86
CN(C)S(=O)(=O)N1CCC2(CC1)CC(C(=O)N1CCN(C3CCCCCC3)CC1)=NO2 [Example 144, 3-(4-cycloheptyl-piperazine-1-carbonyl)-1-oxa-2,8-diaza-spiro[4,5]dec-2-ene-8 sulphonic acid dimethylamide]	53
Cc1ccc(S(=O)(=O)N2CCC3(CC2)CC(C(=O)N(CCc2ccccc2)Cc2ccccc2)=NO3)cc1 [Example 18, 8-(toluene-4-sulphonyl)-1-oxa-2,8-diaza-spiro[4,5]dec-2-ene-3-carboxylic acid benzyl-phenethyl-amide]	53
Cc1cc(C(=O)N2CCC3(CC2)CC(C(=O)NCc2ccccc2)=NO3)c(C)o1 [Example 217, 8-(2,5-dimethyl-furan-3-carbonyl)-1-oxa-2,8-diaza-spiro[4,5]dec-2-ene-3-carboxylic acid benzylamide]	51
O=C(Cc1ccc(F)c(F)c1)N1CCN(C(=O)C2=NOC3(CCN(S(=O)(=O)c4cccc(C(F)(F)F)c4)CC3)C2)CC1 [Example 93]	52
O=C(NC(c1ccccc1)c1ccccc1)C1=NOC2(CCN(S(=O)(=O)c3ccc(Cl)s3)CC2)C1 [Example 40, 8-(5-chloro-thiophene-2-sulphonyl)-1-oxa-2,8-diaza-spiro[4,5]dec-2-ene-3 carboxylic acid benzhydryl-amide]	47
CN(CCc1c[nH]c2ccccc12)C(=O)C1=NOC2(CCN(S(=O)(=O)c3ccc(OC(F)(F)F)cc3)CC2)C1 [Example 16, 8-(4-trifluoromethoxy-benzenesulphonyl)-1-oxa-2,8-diaza-spiro[4,5]dec-2-ene-3 carboxylic acid [2-(1 H-indo1-3-yl)-ethyl]-methyl-amide]	60
O=C(NCc1ccccc1)C1=NOC2(CCN(C(=O)c3cccc(SC(F)F)c3)CC2)C1 [Example 180, 8-(3-difluoromethylsulphanyl-benzoyl)-1-oxa-2,8-diaza-spiro[4,5]dec-2-ene-3-carboxylic acid benzylamide]	57
COc1ccc(Br)cc1S(=O)(=O)N1CCC2(CC1)CC(C(=O)NC1CCCC1)=NO2 [Example 173, 8-(5-bromo-2-methoxy-benzenesulphonyl)-1-oxa-2,8-diaza-spiro[4,5]dec-2-ene-3-carboxylic acid cyclopentylamide]	62
CC(Oc1ccccc1)C(=O)N1CCC2(CC1)CC(C(=O)NCc1ccccc1)=NO2 (stereo not shown) [Example 149, 8-(2-phenoxy-propionyl)-1-oxa-2,8-diaza-spiro[4,5]dec-2-ene-3-carboxylic acid benzylamide]	40
Cc1ccc(S(=O)(=O)N2CCC3(CC2)CC(C(=O)N2CCN(C(C)c4ccccc4)CC2)=NO3)cc1 (stereo not drawn) [Example 32, [4-(1-phenyl-ethyl)-piperazin-l-yl]-[8-(toluene-4-sulphonyl)-1-oxa-2,8-diaza-spiro[4,5]dec-2-en-3-yl]-methanone]	66
CCc1ccc(C(=O)N2CCC3(CC2)CC(C(=O)NCc2cccs2)=NO3)cc1 [Example 52, 8-(4-ethyl-benzoyl)-1-oxa-2,8-diaza-spiro[4,5]dec-2-ene-3-carboxylic acid (thiophen-2-ylmethyl)-amide]	63
CCOC(=O)N1CCC(NC(=O)C2=NOC3(CCN(C(=O)c4ccc(Br)cc4)CC3)C2)CC1 [Example 62, 4-{[8-(4-bromo-benzoyl)-1-oxa-2,8-diaza-spiro[4,5]dec-2-ene-3-carbonyl]-amino)-piperidine-l-carboxylic acid ethyl ester]	49
O=C(NCc1ccccc1)C1=NOC2(CCN(C(=O)c3ccc(F)c(Cl)c3)CC2)C1 [Example 205, 8-(3-chloro-4-fluorobenzoyl)-1-oxa-2,8-diaza-spiro[4,5]dec-2-ene-3-carboxylic acid benzylamide]	53
Cc1ccc(S(=O)(=O)N2CCC3(CC2)CC(C(=O)N2CCN(c4ccc(C)cc4C)CC2)=NO3)cc1 [Example 33, [4-(2,4-dimethyl-phenyl)-piperazin-l-yl]-[8-(toluene-4-sulphonyl)-1-oxa-2,8-diazaspiro[4,5]dec-2-en-3-yl]methanone]	67
O=C(NCc1cccs1)C1=NOC2(CCN(C(=O)CCCOc3ccccc3)CC2)C1 [Example 183]	68

SMILES	BTX bond, 10 μM, % inhibition [%]
O=C(NCc1cccc(F)c1)C1=NOC2(CCN(S(=O)(=O)c3cccs3)CC2)C1 [Example 24, 8-(thiophene-2-sulphonyl)-1-oxa-2,8-diaza-spiro[4,5]dec-2-ene-3-carboxylic acid 3-fluorobenzylamide]	41
CC(=O)N1CCC2(CC1)CC(C(=O)NCc1ccccc1)=NO2 [Example 48, 8-acetyl-1-oxa-2,8-diaza-spiro[4,5]dec-2-ene-3-carboxylic acid benzylamide]	43
CC(NC(=O)C1=NOC2(CCN(S(=O)(=O)c3ccc(Cl)s3)CC2)C1)c1cccc2c1OCCO2 (stereo not shown) [Example 140, 8-(5-chloro-thiophene-2-sulphonyl)-1-oxa-2,8-diaza-spiro[4,5]dec-2-ene-3-carboxylic acid [1-(2,3-dihydro-benzo[1,4]dioxin-5-yl)-ethyl]-amide]	60
O=C(C1=NOC2(CCN(S(=O)(=O)Cc3ccccc3)CC2)C1)N1CCN(CCCc2ccccc2)CC1 [Example 69]	50
Cc1ccc(F)c(C(=O)N2CCC3(CC2)CC(C(=O)NCc2cccs2)=NO3)c1F [Example 170, 8-(2,6-difluoro-3-methyl-benzoyl)-1-oxa-2,8-diaza-spiro[4,5]dec-2-ene-3-carboxylic acid (thiophen-2-ylmethyl)-amide]	59
Cc1ccc(S(=O)(=O)N2CCC3(CC2)CC(C(=O)NCCN(C)C)=NO3)cc1 [Example 57, 8-(toluene-4-sulphonyl)-1-oxa-2,8-diaza-spiro[4,5]dec-2-ene-3-carboxylic acid (2-dimethylamino-ethyl)-amide]	45
O=C(NCc1cccs1)C1=NOC2(CCN(C(=O)COc3cccc(Cl)c3)CC2)C1 [Example 96, 8-[2-(3-chloro-phenoxy)-acetyl]-1-oxa-2,8-diaza-spiro[4,5]dec-2-ene-3-carboxylic acid (thiophen-2-ylmethyl)-amide]	72
COc1cccc(CCNC(=O)C2=NOC3(CCN(S(=O)(=O)c4ccc(F)cc4)CC3)C2)c1 [Example 124, 8-(4-fluoro-benzenesulphonyl)-1-oxa-2,8-diaza-spiro[4,5]dec-2-ene-3-carboxylic acid [2-(3-methoxy-phenyl)-ethyl]-amide]	54
CC1CCCCN1CCCNC(=O)C1=NOC2(CCN(S(=O)(=O)c3cc(Cl)ccc3Cl)CC2)C1 (stereo not shown) [Example 15, 8-(2,5-dichloro-benzenesulphonyl)-1-oxa-2,8-diaza-spiro[4,5]dec-2-ene-3-carboxylic acid[3-(2-methyl-piperidin-1-yl)-propyl]-amide]	88
O=C(NCCc1cccc(C(F)(F)F)c1)C1=NOC2(CCN(S(=O)(=O)c3ccc(F)cc3)CC2)C1 [Example 196]	51
O=C(C1=NOC2(CCN(S(=O)(=O)c3ccc(OC(F)(F)F)cc3)CC2)C1)N1CCN(CCCc2ccccc2)CC1 [Example 176, [4-(3-phenyl-propyl)-piperazin-l-yl]-[8-(4-trifluoromethoxy-benzenesulphonyl)-1-oxa-2,8-diaza-spiro [4,5]dec-2-en-3-yl]-methanone]	76
O=C(C1=NOC2(CCN(S(=O)(=O)Cc3ccccc3)CC2)C1)N1CCN(Cc2ccc3ccccc3c2)CC1 [Example 6, (4-naphthalen-2-ylmethyl-piperazin-l-yl)-(8-phenylmethane-sulphonyl-1-oxa-2,8 diaza-spiro[4,5]dec-2-en-3-yl)-methanone]	49
COc1ccc(S(=O)(=O)N2CCC3(CC2)CC(C(=O)NC(C)Cc2ccc(Cl)cc2)=NO3)cc1 (stereo not shown) [Example 164, 8-(4-methoxy-benzenesulphonyl)-1-oxa-2,8-diaza-spiro[4,5]dec-2-ene-3-carboxylic acid [2-(4-chloro-phenyl)-1-methyl-ethyl]-amide]	52
CCCC(=O)N1CCC2(CC1)CC(C(=O)Nc1ccccc1)=NO2 [Example 85, 8-butyryl-1-oxa-2,8-diaza-spiro[4,5]dec-2-ene-3-carboxylic acid phenylamide]	62
O=C(C1=NOC2(CCN(S(=O)(=O)c3cccc(C(F)(F)F)c3)CC2)C1)N1CCN(CCCc2ccccc2)CC1 [Example 83, [4-(3-phenyl-propyl)-piperazin-1-yl]-[8-(3-trifluoromethyl-benzenesulphonyl)-1-oxa-2,8-diaza-spiro[4,5]dec-2-en-3-yl]-methanone]	72
Cc1ccccc1N1CCN(C(=O)C2=NOC3(CCN(S(=O)(=O)Cc4ccccc4)CC3)C2)CC1 [Example 133, (8-phenylmethanesulphonyl-1-oxa-2,8-diaza-spiro[4,5]dec-2-en-3-yl)-(4-o-tolyl-piperazin-l-yl)-methanone]	47

Same assay, conditions: rat cerebrocortex synaptosomes, 10 µM

SMILES	BTX bond, 10 μM, % inhibition [%]
Cc1ccc(S(=O)(=O)N2CCC3(CC2)CC(C(=O)NC2CCCC2OCc2ccccc2)=NO3)cc1 (stereo not shown) [Example 67, 8-(toluene-4-sulphonyl)-1-oxa-2,8-diaza-spiro[4,5]dec-2-ene-3-carboxylic acid (2-benzyloxy-cyclopentyl)-amide]	80
